Read-outs that look alike come from different tables or passages of the source.
Legend:
[1] = target: T1, human PR ligand-binding domain tagged with GST [PR-LBD (GST)] (Homo sapiens, UniProt P06401); assay: PR fluorescence polarization (FP) binding assay; conditions: Fluormone PL Green
T1 construct: purchased Life Technologies (Carlsbad, Calif.)
T1 sequence (P06401 679-913 limits assumed): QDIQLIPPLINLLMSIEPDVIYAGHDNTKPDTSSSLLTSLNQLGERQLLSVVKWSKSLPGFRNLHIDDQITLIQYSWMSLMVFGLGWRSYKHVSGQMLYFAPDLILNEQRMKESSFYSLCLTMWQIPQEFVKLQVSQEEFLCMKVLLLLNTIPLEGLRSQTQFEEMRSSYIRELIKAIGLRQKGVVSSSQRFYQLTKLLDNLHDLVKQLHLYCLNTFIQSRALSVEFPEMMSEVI
Description: (§1) Receptor Binding Assay Information—In certain of the following examples, hormone receptor binding assays were used to determine the receptor binding activities of monomeric compound embodiments to androgen (AR), progesterone (PR), estrogen alpha (ERα) or glucocorticoid (GR) receptors. For AR, PR or ERα, the respective receptors are added to novel, tight-binding, selective ligands tagged with a fluorescent molecule, to form a receptor-ligand complex with a high polarization value. This complex is then added to individual monomeric compound embodiments that are contained in well plates. If the monomeric compound binds to the respective receptors, it displaces the fluorescent ligand from the complex, resulting in a low polarization value. In such embodiments, the monomeric compound is characterized as a competitor. […] In such embodiments, the monomeric compound is characterized as a noncompetitor. The shift in polarization value in the presence of the monomeric compound is used to determine the relative affinity of monomeric compound for the receptor.
(§2) For the androgen, progesterone, and estrogen receptor binding assays described herein, the preparation of reagents and test procedures is performed according to the manufacturer's instructions (Life Technologies, Carlsbad, Calif.). The plates are covered to protect the reagents from light and incubated at 20-25° C. for 4-8 hrs. The fluorescence polarization of the samples is measured with 485 nm excitation and 530 nm emission interference filters.
In this example, PR binding activity was assessed using the PR fluorescence polarization (FP) assay, which provides a sensitive and efficient method for high-throughput screening of potential PR ligands. The kit uses human PR ligand-binding domain tagged with GST [PR-LBD (GST)], and a tight-binding, selective fluorescent progesterone ligand (Fluormone™ PL Green) in a homogenous mix-and-read assay format. Progesterone receptor [PR-LBD (GST)] was added to a fluorescent progesterone ligand (Fluormone™ PL Green) to form a PR-LBD (GST)/Fluormone™ PL Green complex resulting in a high polarization value. This complex was then added to individual compound embodiments in 96-well plates. Competitors displaced the fluorescent Fluormone™ PL Green ligand from the PR-LBD (GST)/Fluormone™ PL Green complex, causing the fluorescent ligand to tumble rapidly during its fluorescence lifetime, resulting in a low polarization value. […] The shift in polarization value in the presence of compound embodiments was used to determine relative affinity of compound embodiments for PR-LBD (GST). The fluorescence polarization of the samples was measured with 485 nm excitation and 530 nm emission interference filters. Results for monomeric compound embodiments wherein the R^2 groups is not present (such as to test compound activity after R^2 cleavage) are provided in Table 4.

[2] = target: T2, full-length, untagged, human estrogen receptors (ERα) (Homo sapiens, UniProt P03372); assay: ERα fluorescence polarization (FP) binding assay
T2 construct: insect cell-expressed, full-length, untagged, human estrogen receptors; purchased Life Technologies (Carlsbad, Calif.); host or cells: insect cells
Description: as §1
as §2, with “hrs.” for “hrs. The fluorescence polarization of the samples is measured with 485 nm excitation and 530 nm emission interference filters.”
For ERα data, the ERα fluorescence polarization (FP) assay was used, which provides a sensitive and efficient method for high-throughput screening of potential ER ligands. The kit uses insect cell-expressed, full-length, untagged, human estrogen receptors and a tight-binding, fluorescent estrogen ligand (Fluormone™ ES2) in a homogenous mix-and-read assay format. ERα was added to a fluorescent estrogen ligand to form an ERα/Fluormone™ ES2 complex. This complex was then added to individual compound embodiments contained in 96-well plates. […] The change in polarization value in the presence of a compound embodiment was used to determine relative affinity of a compound embodiment for ERα.

[3] = target: T3, rat AR ligand-binding domain tagged with His and GST [AR-LBD (His-GST)] (Rattus norvegicus, UniProt P15207); assay: AR fluorescence polarization (FP) binding assay; conditions: Fluormone AL Green
T3 construct: purchased Life Technologies (Carlsbad, Calif.)
T3 sequence (P15207 651-882 limits assumed): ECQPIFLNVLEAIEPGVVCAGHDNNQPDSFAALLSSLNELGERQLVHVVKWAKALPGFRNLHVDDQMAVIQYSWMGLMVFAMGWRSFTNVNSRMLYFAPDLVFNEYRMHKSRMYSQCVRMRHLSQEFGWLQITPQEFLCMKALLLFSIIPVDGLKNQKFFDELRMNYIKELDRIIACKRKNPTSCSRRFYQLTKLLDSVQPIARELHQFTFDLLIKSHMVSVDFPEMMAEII
Description: as §1
as §2, with “hrs.” for “hrs. The fluorescence polarization of the samples is measured with 485 nm excitation and 530 nm emission interference filters.”
In this example, AR binding activity and ER binding activity of certain reference compounds and monomeric compound embodiments wherein the R^2 group is not present was assessed (such as to test compound activity after R^2 cleavage). The AR fluorescence polarization (FP) assay was used and provides a sensitive and efficient method for high-throughput screening of potential AR ligands. The kit uses rat AR ligand-binding domain tagged with His and GST [AR-LBD (His-GST)], and a tight-binding, selective fluorescent androgen ligand (Fluormone™ AL Green) in a homogenous mix-and-read assay format. The androgen receptor [AR-LBD (His-GST)] was added to a fluorescent androgen ligand (Fluormone™ AL Green) to form an AR-LBD (His-GST)/Fluormone™ AL Green complex resulting in a high polarization value. This complex was then added to individual compound embodiments in 96-well plates. Competitors displaced the fluorescent Fluormone™ AL Green ligand from the AR-LBD (His-GST)/Fluormone™ AL Green complex, causing the fluorescent ligand to tumble rapidly during its fluorescence lifetime, resulting in a low polarization value. […] The shift in polarization value in the presence of compound embodiments used to determine relative affinity of compound embodiments for AR-LBD (His-GST).

[4] = target: T4, human full-length androgen receptor (Homo sapiens, UniProt P10275); assay: AR Transactivation Assay (MMTV-luciferase, HEC-1-B cells); assay type: cell-based
T4 sequence (P10275 1-920): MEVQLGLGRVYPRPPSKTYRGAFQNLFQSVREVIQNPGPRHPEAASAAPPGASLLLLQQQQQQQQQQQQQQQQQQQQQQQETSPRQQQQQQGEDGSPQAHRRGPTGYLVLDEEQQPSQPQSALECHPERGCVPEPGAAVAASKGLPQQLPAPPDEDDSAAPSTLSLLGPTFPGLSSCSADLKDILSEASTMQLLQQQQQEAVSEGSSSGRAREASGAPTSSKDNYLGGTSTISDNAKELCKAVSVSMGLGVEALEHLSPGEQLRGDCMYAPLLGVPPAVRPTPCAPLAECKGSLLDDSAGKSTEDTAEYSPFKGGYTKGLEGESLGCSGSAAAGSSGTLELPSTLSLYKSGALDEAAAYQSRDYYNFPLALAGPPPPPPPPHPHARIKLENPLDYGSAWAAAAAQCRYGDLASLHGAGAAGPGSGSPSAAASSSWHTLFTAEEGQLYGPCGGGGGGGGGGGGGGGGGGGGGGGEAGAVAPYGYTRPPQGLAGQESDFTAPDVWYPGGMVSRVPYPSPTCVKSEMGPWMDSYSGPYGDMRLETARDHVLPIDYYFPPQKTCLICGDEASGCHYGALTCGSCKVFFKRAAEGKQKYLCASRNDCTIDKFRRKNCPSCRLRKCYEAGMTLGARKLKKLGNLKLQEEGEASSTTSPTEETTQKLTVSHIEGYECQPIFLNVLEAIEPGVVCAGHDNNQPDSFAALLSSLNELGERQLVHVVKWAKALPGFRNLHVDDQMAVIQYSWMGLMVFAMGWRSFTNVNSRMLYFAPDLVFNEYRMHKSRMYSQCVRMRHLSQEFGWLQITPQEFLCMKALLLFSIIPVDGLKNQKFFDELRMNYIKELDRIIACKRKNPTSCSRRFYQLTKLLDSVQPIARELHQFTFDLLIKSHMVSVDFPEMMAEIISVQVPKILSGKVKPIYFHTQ

[5] = target: T5, recombinant human aromatase (Homo sapiens, UniProt P11511); assay: Aromatization by recombinant human aromatase (CYP19+P450 reductase Supersomes); conditions: 10 μM, 37° C.
T5 sequence (P11511 1-503): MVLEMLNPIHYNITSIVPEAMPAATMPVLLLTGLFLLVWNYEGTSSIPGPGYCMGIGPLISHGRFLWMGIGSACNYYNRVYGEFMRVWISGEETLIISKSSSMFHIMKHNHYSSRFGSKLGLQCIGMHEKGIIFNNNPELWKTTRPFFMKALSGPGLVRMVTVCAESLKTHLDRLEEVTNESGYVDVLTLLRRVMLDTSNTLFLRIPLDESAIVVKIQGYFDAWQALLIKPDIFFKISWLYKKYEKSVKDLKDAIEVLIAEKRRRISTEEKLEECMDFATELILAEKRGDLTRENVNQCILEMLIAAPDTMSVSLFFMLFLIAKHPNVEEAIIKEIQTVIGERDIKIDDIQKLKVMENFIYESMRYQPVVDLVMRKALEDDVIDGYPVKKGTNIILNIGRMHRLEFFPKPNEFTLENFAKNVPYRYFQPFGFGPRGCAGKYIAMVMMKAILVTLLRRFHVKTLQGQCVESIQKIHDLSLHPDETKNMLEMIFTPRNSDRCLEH

[6] = system: castrated Sprague-Dawley male rats; assay: Hershberger assay, ventral prostate weights (7α-methyl testosterone); assay type: in vivo, rat
castrated weanling rats = conditions: rat, in vivo
[7] = human, plasma
[8] = fluorescence polarization, Fluormone ES2, read-out: IC50 (nM) ERα

T2 sequence (P03372 whole entry): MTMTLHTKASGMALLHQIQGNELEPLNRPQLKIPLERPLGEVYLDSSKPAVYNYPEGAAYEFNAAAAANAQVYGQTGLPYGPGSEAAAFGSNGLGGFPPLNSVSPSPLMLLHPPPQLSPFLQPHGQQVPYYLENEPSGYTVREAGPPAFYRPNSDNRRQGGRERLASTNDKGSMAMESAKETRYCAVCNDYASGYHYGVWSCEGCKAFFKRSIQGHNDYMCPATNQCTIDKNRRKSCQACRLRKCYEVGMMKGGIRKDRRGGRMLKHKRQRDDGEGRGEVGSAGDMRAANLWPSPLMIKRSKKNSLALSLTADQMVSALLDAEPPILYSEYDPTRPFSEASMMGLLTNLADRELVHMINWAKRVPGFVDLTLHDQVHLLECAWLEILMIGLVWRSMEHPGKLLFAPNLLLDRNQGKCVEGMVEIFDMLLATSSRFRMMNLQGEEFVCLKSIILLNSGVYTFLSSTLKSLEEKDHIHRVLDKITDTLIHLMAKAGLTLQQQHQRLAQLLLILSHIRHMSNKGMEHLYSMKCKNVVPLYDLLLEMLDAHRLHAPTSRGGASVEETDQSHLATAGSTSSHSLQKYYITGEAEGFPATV

Row | SMILES | IC50 ([1]; read-out: IC50 (nM) PR binding) [nM] | IC50 [2, 8] [nM] | IC50 (nM) AR [3] [nM] | % remaining at 15 min [5] [%] | % remaining at 30 min [5] [%] | % remaining at 60 min [5] [%] | other results
1 | CC1CC2(C)C(O)CCC2C2CCC3=CC(=O)CCC3=C12 (stereo not drawn) [CDB-4890, 11β, 4,9 diene-MNT] | 43.5 | 6680 | 15.5 | – | – | – | –
2 | CC1CC2(C)C(O)CCC2C2C(C)Cc3cc(O)ccc3C12 (stereo not drawn) [CDB 4916, 7α, 11β-dimethyl estradiol] | 165 | 13.8 | 17.8 | – | – | – | EC50 [4]: 3.68 nM
3 | C[C@]12CC[C@H]3[C@@H](CCC4=CC(=O)CC[C@@]43C)[C@@H]1CC[C@@H]2O [Testosterone, reference compound] | – | – | – | 31.4 | 0.1 | 0.1 | Ventral Prostate (weight in gram) ([6]; Conc. in mmole 6.9): 0.12 gram
4 | CC1CC2(C)C(O)CCC2C2CCc3cc(O)ccc3C12 (stereo not drawn) [CDB 4917, 11β-methyl estradiol] | 120 | 12 | 12.8 | – | – | – | –
5 | C[C@@H]1CC2=CC(=O)CC[C@]2(C)C2CC[C@@]3(C)C(CC[C@@H]3O)C21 (stereo partly drawn) [CDB-4910, 7α-methyl testosterone] | – | – | – | 57.6 | 20.2 | 0.1 | IC50 ([1]; IC50 (nM) PR binding): 395 nM; IC50 [2]: 7830 nM; Ventral Prostate (weight in gram) ([6]; Conc. in mmole 0.7): 0.076 gram; Ventral Prostate (weight in gram) ([6]; Conc. in mmole 2.8): 0.13 gram; Ventral Prostate (weight in gram) ([6]; Conc. in mmole 11.2): 0.14 gram
6 | C[C@@H]1CC2CC(=O)CC[C@]2(C)C2CC[C@@]3(C)C(CC[C@@H]3O)C21 (stereo partly drawn) [CDB-4922, 7α-methyldihydro testosterone] | – | – | 57.1 | 66.8 | 38.0 | 10.1 | IC50 ([1]; IC50 (nM) PR binding): 1890 nM; IC50 [2]: 26300 nM
7 | C[C@@H]1CC2=CC(=O)CCC2C2C1C1CC[C@H](OC(=O)CCCCCCCCCCC(=O)O[C@H]3CCC4C5C(C6CCC(=O)C=C6C[C@H]5C)[C@@H](C)C[C@@]43C)[C@@]1(C)C[C@@H]2C (stereo partly drawn) [CDB-4867] | – | – | – | – | – | – | AUC (Levator ani muscle) (castrated weanling rats): 5059 mg*week; AUC (Ventral Prostate) (castrated weanling rats): 529.5 mg*week; duration of levator ani muscle weight increase (anabolic effects) (castrated weanling rats): sustained until Day 99 (Week 14); duration of ventral prostate weight increase (androgenic effects) (castrated weanling rats): sustained until Day 99 (Week 14); ventral prostate gland weights relative to vehicle (castrated weanling rats): increased; Parent molecule % remaining after 24 hours at 37° C. ([7]; male): 100≤ %
8 | CC1Cc2cc(O)ccc2C2CCC3(C)C(O)CCC3C12 (stereo not drawn) [CDB 4915, 7α-methyl estradiol] | 502 | 10.3 | 20.1 | – | – | – | EC50 [4]: 39 nM
9 | C[C@@H]1CC2=CC(=O)CC[C@@H]2[C@H]2CC[C@]3(C)[C@@H](O)CC[C@H]3[C@@H]21 [CDB-902, 7-α-methylnortestosterone, reference compound] | – | – | – | – | – | – | Parent molecule % remaining after 24 hours at 37° C. [7]: 100≤ %
